A short description of data set [1]: Log P measurement by HPLC on reversed phase columns (EEC directive 79/831 Annex V.A8). As to conditions: LC-UV; for chromatographic logP: reversed phase HPLC column. The format is physicochemical. How it is done: [table] Measurement of Log P values was performed according to EEC directive 79/831 Annex V.A8 by HPLC (High Performance Liquid Chromatography) on reversed phase columns with the following methods: If more than one Log P value is available within the same method, all the values are given and separated by “+”. […] Lambda-max-values were determined using UV-spectra from 200 nm to 400 nm and the peak values of the chromatographic signals.

For data set [2], the system named is Phakopsora pachyrhizi. Kind of data set: In vivo preventive test on Phakopsora (soybeans). More on the design: species or system Phakopsora pachyrhizi (soybean rust) on soybeans. Conditions: 168 h, young soybean plants sprayed, 10 ppm of active ingredient, evaluated 7 days after inoculation, 0% = untreated control, 100% = no disease, read-out: efficacy. How it is done: Example: In Vivo Preventive Test on Phakopsora Test (Soybeans)
To produce a suitable preparation of active compound, 1 part by weight of active compound is mixed with the stated amounts of solvent and emulsifier, and the concentrate is diluted with water to the desired concentration.
To test for preventive activity, young plants are sprayed with the preparation of active compound at the stated rate of application. After the spray coating has dried on, the plants are inoculated with an aqueous spore suspension of the causal agent of soybean rust (Phakopsora pachyrhizi) and stay for 24 h without light in an incubation cabinet at approximately 24° C. and a relative atmospheric humidity of 95%.
The plants remain in the incubation cabinet at approximately 24° C. and a relative atmospheric humidity of approximately 80% and a day/night interval of 12 h.
The test is evaluated 7 days after the inoculation. 0% means an efficacy which corresponds to that of the untreated control, while an efficacy of 100% means that no disease is observed.

The mark [3] stands for this setting: acidic range, 0.1% formic acid in water and acetonitrile as eluent (linear gradient 10% to 95% acetonitrile), read-out: LogP [a].
The mark [4] stands for this setting: neutral range, 0.001 molar ammonium acetate solution in water and acetonitrile as eluent (linear gradient 10% to 95% acetonitrile), read-out: LogP [b].
Setting [5] is: acidic range, 0.1% formic acid in water and acetonitrile as eluent (linear gradient 10% to 95% acetonitrile).
Setting [6] is: neutral range, 0.001 molar ammonium acetate solution in water and acetonitrile as eluent (linear gradient 10% to 95% acetonitrile).

Read-outs that look alike come from different tables or passages of the source.

`CCN(C)C=Nc1cc(C)c(Cc2ccccc2C#N)cc1Cl` [Example 1, N′-[2-chloro-4-[(2-cyanophenyl)methyl]-5-methylphenyl]-N-ethyl-N-methylmethanimidamide]: the chromatographic logP in data set [1] (setting [3]) came out at 1.41; in data set [1] (setting [4]), 3.86. Also, the pest or weed control at 10 ppm in data set [2] was 80 to 89%.

On to `CCN(C)C=Nc1cc(C)c(Cc2ccccc2F)cc1Cl` [Example 2, N′-[2-chloro-4-[(2-fluorophenyl)methyl]-5-methylphenyl]-N-ethyl-N-methylmethanimidamide], for which the chromatographic logP in data set [1] (setting [3]) was found to be 1.52; in data set [1] (setting [4]), 4.5. Besides, the pest or weed control at 10 ppm in data set [2] was in the range of 90 to 100%.

For the compound `CCN(C)C=Nc1cc(C)c(Cc2ccccc2)cc1Cl` [Example 3, N′-(4-benzyl-2-chloro-5-methylphenyl)-N-ethyl-N-methylmethanimidamide], the chromatographic logP in data set [1] (setting [3]) was found to be 1.49. The pest or weed control at 10 ppm in data set [2] lay within 90 to 100%.

Regarding `CCN(C)C=Nc1cc(Cl)c(Cc2ccccc2C#N)cc1C` [Example 4, N′-[5-chloro-4-[(2-cyanophenyl)methyl]-2-methylphenyl]-N-ethyl-N-methylmethanimidamide], the chromatographic logP is 1.38 in data set [1] (setting [3]) and 4.38 in data set [1] (setting [4]).

`CCN(C)C=Nc1cc(Cl)c(Cc2ccccc2F)cc1C` [Example 5]: the “LogP [a]” value in data set [1] (setting [5]) is 1.58[a];. Further, the “LogP [b]” value in data set [1] (setting [6]) is 2.99[b].

With `CCN(C)C=Nc1cc(Cl)c(Cc2ccccc2)cc1C` [Example 6, N′-(4-benzyl-5-chloro-2-methylphenyl)-N-ethyl-N-methylmethanimidamide], the chromatographic logP in data set [1] (setting [3]) stood at 1.72; in data set [1] (setting [4]), 5.16. The pest or weed control at 10 ppm in data set [2] was 90 to 100%.

`CCN(C)C=Nc1cc(C)c(Cc2ccccc2Cl)cc1C` [Example 7, N′-[4-[(2-chlorophenyl)methyl]-2,5-dimethylphenyl]-N-ethyl-N-methylmethanimidamide]: the values for the chromatographic logP in data set [1] (setting [3]) and in data set [1] (setting [4]) were 1.92 and 5.16, respectively.

Turning to `CCN(C)C=Nc1cc(C)c(Cc2ccccc2C#N)cc1C` [Example 8, N′-[4-[(2-cyanophenyl)methyl]-2,5-dimethylphenyl]-N-ethyl-N-methylmethanimidamide], the figures for the chromatographic logP in data set [1] (setting [3]) and in data set [1] (setting [4]) were 1.47 and 4.15, respectively. Also, the pest or weed control at 10 ppm in data set [2] lay within 90 to 100%.

In the case of `CCN(C)C=Nc1cc(C)c(Cc2ccc(F)cc2F)cc1C` [Example 9, N′-[4-[(2,4-difluorophenyl)methyl]-2,5-dimethylphenyl]-N-ethyl-N-methylmethanimidamide], the chromatographic logP in data set [1] (setting [3]) turned out to be 1.79; in data set [1] (setting [4]), 4.86. In data set [2], the pest or weed control at 10 ppm was in the range of 90 to 100%.

Turning to `CCN(C)C=Nc1cc(C)c(Cc2ccccc2F)cc1C` [Example 10, N-ethyl-N′-[4-[(2-fluorophenyl)methyl]-2,5-dimethylphenyl]-N-methylmethanimidamide], the chromatographic logP is 1.6 in data set [1] (setting [3]) and 4.87 in data set [1] (setting [4]). For the same compound, the pest or weed control at 10 ppm in data set [2] lay within 90 to 100%.

Consider `CCN(C)C=Nc1cc(C)c(Cc2ccccc2)cc1C` [Example 11, N′-(4-benzyl-2,5-dimethylphenyl)-N-ethyl-N-methylmethanimidamide], for which the results for the chromatographic logP in data set [1] (setting [3]) and in data set [1] (setting [4]) were 1.58 and 4.9, respectively. In addition, the pest or weed control at 10 ppm in data set [2] lay within 90 to 100%.

With `Cc1cc(N=CN(C)C(C)C)c(C)cc1Cc1ccc(F)cc1F` [Example 12, N′-[4-[(2,4-difluorophenyl)methyl]-2,5-dimethylphenyl]-N-isopropyl-N-methylmethanimidamide], the chromatographic logP in data set [1] (setting [3]) was 1.92; in data set [1] (setting [4]) it was 5.31. Also, the pest or weed control at 10 ppm in data set [2] was in the range of 90 to 100%.

With `CCN(C)C=Nc1cc(C)c(C2(c3ccccc3)CC2)cc1C` [Example 13, N′-[2,5-dimethyl-4-(1-phenylcyclopropyl)phenyl]-N-ethyl-N-methylmethanimidamide], in data set [1] (setting [3]), the chromatographic logP came out at 1.85. Besides, the pest or weed control at 10 ppm in data set [2] fell in the range of 90 to 100%.

Take `CCN(C)C=Nc1cc(C)c(C2(c3ccccc3)CC2(F)F)cc1C` (stereo not shown) [Example 14, N′-[4-(2,2-difluoro-1-phenylcyclopropyl)-2,5-dimethylphenyl]-N-ethyl-N-methylmethanimidamide]: the chromatographic logP in data set [1] (setting [3]) amounted to 1.63. The pest or weed control at 10 ppm in data set [2] lay within 90 to 100%.

`CCN(C)C=Nc1cc(C)c(C2(c3ccccc3)CC2(Cl)Cl)cc1C` (stereo not shown) [Example 15, N′-[4-(2,2-dichloro-1-phenylcyclopropyl)-2,5-dimethylphenyl]-N-ethyl-N-methylmethanimidamide]: the chromatographic logP in data set [1] (setting [3]) was 1.83.

Turning to `CCN(C)C=Nc1cc(C)c(C2(c3ccccc3)CC2(Br)Br)cc1C` (stereo not shown) [Example 16, N′-[4-(2,2-dibromo-1-phenylcyclopropyl)-2,5-dimethylphenyl]-N-ethyl-N-methylmethanimidamide], in data set [1] (setting [3]), the chromatographic logP is 1.89.

Take `CCN(C)C=Nc1cc(Cl)c(C(C)c2ccccc2)cc1C` (stereo not shown) [Example 18, N′-[5-chloro-2-methyl-4-(1-phenylethyl)phenyl]-N-ethyl-N-methylmethanimidamide]: the chromatographic logP in data set [1] (setting [3]) amounted to 1.58; in data set [1] (setting [4]), 5.32. Moreover, in data set [2], the pest or weed control at 10 ppm is 90 to 100%.

For `C=C(c1ccccc1)c1cc(C)c(N=CN(C)CC)cc1Cl` [Example 19, N′-[5-chloro-2-methyl-4-(1-phenylethen-1-yl)phenyl]-N-ethyl-N-methylmethanimidamide], the figures for the chromatographic logP in data set [1] (setting [3]) and in data set [1] (setting [4]) were 1.58 and 5.24, respectively. Besides, the pest or weed control at 10 ppm in data set [2] was 80 to 89%.

Turning to `CCN(C)C=Nc1cc(F)c(Cc2ccccc2)cc1C` [Example 20, N′-(4-benzyl-5-fluoro-2-methylphenyl)-N-ethyl-N-methylmethanimidamide], the results for the chromatographic logP in data set [1] (setting [3]) and in data set [1] (setting [4]) were 2 and 4.62, respectively. Further, in data set [2], the pest or weed control at 10 ppm is 90 to 100%.

In the case of `CCN(C)C=Nc1cc(Cl)c(Cc2ccccc2-c2ccccc2)cc1C` [Example 25, N′-[5-chloro-2-methyl-4-[(2-phenylphenyl)methyl]phenyl]-N-ethyl-N-methylmethanimidamide], the chromatographic logP stood at 2.05 in data set [1] (setting [3]) and 6.02 in data set [1] (setting [4]).

Take `CCN(C)C=Nc1cc(C)c(Cc2ccccc2OC)cc1Cl` [Example 26, N′-[2-chloro-4-[(2-methoxyphenyl)methyl]-5-methylphenyl]-N-ethyl-N-methylmethanimidamide]: the chromatographic logP was 1.53 in data set [1] (setting [3]) and 4.45 in data set [1] (setting [4]).

As for `CCN(C)C=Nc1cc(C)c(C(C)c2ccccc2)cc1Cl` (stereo not shown) [Example 27, N′-[2-chloro-5-methyl-4-(1-phenylethyl)phenyl]-N-ethyl-N-methylmethanimidamide], the chromatographic logP in data set [1] (setting [3]) was determined as 1.61; in data set [1] (setting [4]), 4.7.

Take `CCN(C)C=Nc1cc(C)c(Cc2ccccc2Cl)cc1Cl` [Example 28, N′-[2-chloro-4-[(2-chlorophenyl)methyl]-5-methylphenyl]-N-ethyl-N-methylmethanimidamide]: the figures for the chromatographic logP in data set [1] (setting [3]) and in data set [1] (setting [4]) were 1.63 and 4.93, respectively.

`CCN(C)C=Nc1cc(Cl)c(Cc2ccccc2OC)cc1C` [Example 29]: in data set [1] (setting [5]), the “LogP [a]” value is 1.58^[a];. The “LogP [b]” value in data set [1] (setting [6]) is 4.95^[b].

Consider `C=C(c1ccccc1)c1cc(Cl)c(N=CN(C)CC)cc1C` [Example 31, N′-[2-chloro-5-methyl-4-(1-phenylethen-1-yl)phenyl]-N-ethyl-N-methylmethanimidamide], for which the values for the chromatographic logP in data set [1] (setting [3]) and in data set [1] (setting [4]) were 1.66 and 4.93, respectively.

Take `CCN(C)C=Nc1cc(F)c(Cc2ccccc2OC)cc1C` [Example 32, N-ethyl-N′-[5-fluoro-4-[(2-methoxyphenyl)methyl]-2-methylphenyl]-N-methylmethanimidamide]: the chromatographic logP in data set [1] (setting [3]) worked out at 1.46; in data set [1] (setting [4]), 4.34.

For the compound `CCN(C)C=Nc1cc(F)c(Cc2ccccc2F)cc1C` [Example 33, N-ethyl-N′-[5-fluoro-4-[(2-fluorophenyl)methyl]-2-methylphenyl]-N-methylmethanimidamide], the results for the chromatographic logP in data set [1] (setting [3]) and in data set [1] (setting [4]) were 1.41 and 4.37, respectively.

On to `CCN(C)C=Nc1cc(F)c(C(C)c2ccccc2)cc1C` (stereo not shown) [Example 34, N-ethyl-N′-[5-fluoro-2-methyl-4-(1-phenylethyl)phenyl]-N-methylmethanimidamide], for which the chromatographic logP came out at 1.55 in data set [1] (setting [3]) and 4.63 in data set [1] (setting [4]).

As for `CCN(C)C=Nc1cc(F)c(Cc2ccc(F)cc2F)cc1C` [Example 35, N′-[4-[(2,4-difluorophenyl)methyl]-5-fluoro-2-methylphenyl]-N-ethyl-N-methylmethanimidamide], the chromatographic logP in data set [1] (setting [3]) was found to be 1.52; in data set [1] (setting [4]), 4.54.

The values above are taken from US20190308933A1, “PHENYLAMIDINES AND THE USE THEREOF AS FUNGICIDES” (priority 2016, published 2019).
